In patent publication US20040019092A1, “Non-peptide somatostatin receptor ligands” (priority 2001, published 2004):
Where “and” joins values, the source holds several entries; their conditions need not be identical. Equal values may be shown once.

Legend:
[1] = target: T1, human sst2 receptor sub-type (Homo sapiens, UniProt P30874); assay: In vitro binding, human sst2 receptor sub-type (SSTR2); conditions: Tables 8/9: Bind SSTR2 nM
T1 construct: host or cells: SRIF receptor expressing cell cultures (general statement only)
Procedure: The in vitro binding affinities for rat cortex SRIF receptors and the human sst2 receptor sub-type was assessed. Further the in vitro inhibition of the GHRH induced GH secretion in primary cultures of rat pituitary cells as well as the in vivo inhibition of GH secretion in the rat after systemic or enteral application was studied. […] Therefore, the in vivo activities of the compounds in rats with respect to inhibition of growth hormone release was also assessed. Most compounds selected were tested by enteral—intraduodenal (i.d.) application. For determination of the absolute activity and for the calculation of an enteral bioavailability, single subcutaneous (s.c.) application of intravenous (i.v.) infusion was used.

[2] = tested on: GHRH induced GH secretion in primary cultures of rat pituitary cells; assay: In vitro inhibition of GHRH induced GH secretion (GH vitro +GHRH); format: cell-based
GH secretion [3] = assay: GH secretion in vivo, rat, subcutaneous application, 1 h (basal); conditions: for GH vivo s.c. 1 h ID50: rat, basal GH secretion, 1 h after subcutaneous application
Procedure: (§1) Animals, anesthesia: Male rats of a Sprague Dawley strain (Ico:OFA-SD, Iffa-Credo, F-Lyon) of 200-300 g body weight were used. They were kept under standardized conditions and were anesthetized with pentobarbital-sodium (Siegfried, CH Zofingen), 60 mg/kg i.p. for subcutaneous and intraduodenal applications. Animals designed for an infusion experiment were anesthetized with urethane (Siegfried, CH Zofingen), 1.2 g/kg i.p.
(§2) Compounds: The compounds were dissolved, optionally with the aid of one or more of the following adjuncts:
(§3) Stock solutions of the compounds were prepared in water with the addition of the necessary adjunct(s). Further dilutions were prepared allowing 5 mL/kg for subcutaneous application, 2 mL for intraduodenal (i.d.) application or 4.5 mL/kg for intravenous infusion. The solutions for the intravenous application/infusion were made isotonic by addition of glucose to a final concentration of 5%.
(§4) Applications were made, or, in the case of infusion, started, approximately 10 minutes after induction of anesthesia. No further treatment followed subcutaneous or intraduodenal application. Ten, twenty-five and fifty-five minutes after start of the intravenous infusion the GH secretion was stimulated with repeated intravenous injections of the potent GHRH analog, D-Ala2 GHRH1-29NH2, 1 μg/kg.
(§5) One hour after subcutaneous or intraduodenal application of the compounds, blood was collected from the trunk after decapitation. In the case of application by infusion, 5 minutes after each application of GHRH, a blood sample of 0.8 mL was taken from a V. jugularis and mixed with EDTA (Eppendorf tubes TOM14, Milian, CH Geneva). The blood samples were kept on ice and spun in a cooled centrifuge. The serum or plasma was separated and frozen.
(§6) Statistics: In each experiment, 4-5 animals were used per dose, with 6 to 8 animals as the control group that received the vehicle. The GH serum/plasma levels were averaged, the mean of the treated groups expressed in percent of the control group and the ID50-value for the inhibition of the secretion was determined graphically (log-probit) for each experiment. In most experiments with enteral (intraduodenal) application only 1 dose, 10 mg/kg, was given. […] Only inhibitions between 20 and 80% were considered reliable.
(§7) Two to four experiments were performed. In the case of proper dose response curves, allowing the determination of an ID50 values were averaged logarithmically. In the cases of single dose-experiments, the GH value in percent of control were averaged logarithmically and the ID50 for this value was taken from the table. ID50 values determined at the different time points during the infusion were averaged and this value was included in the tables.

GH secretion [4] = assay: GH secretion in vivo, rat, intraduodenal (enteral) application, 1 h (basal); conditions: for GH vivo i.d. 1 h ID50: basal GH secretion, 1 h after intraduodenal application, mostly approximate ID50 from single 10 mg/kg dose, Ø = no effect at this dose, > = extrapolated value; for enteral ID50 (GH secretion): enteral (intraduodenal) application
Procedure: as §1, §2, §3, §4, §5, §6, §7

[5] = tested on: GHRH stimulated GH secretion; assay: GH secretion in vivo, rat, intravenous infusion with repeated GHRH stimulation; conditions: for INFUS. + GHRH ID50 MEAN: Table 4, mean of infusion time points; for INFUS. + GHRH ID50 15′ / INFUS. + GHRH ID50 30′ / INFUS. + GHRH ID50 60′: Table 4, urethan; for INFUS. + GHRH ID50 15′ / GH, Ur Inf15′ +GHRH: 15′ of infusion; for INFUS. + GHRH ID50 30′ / GH, UR Inf30′ +GHRH: 30′ of infusion; for INFUS. + GHRH ID50 60′ / GH, UR Inf60′ +GHRH: 60′ of infusion; for GH, Ur Inf15′ +GHRH / GH, UR Inf30′ +GHRH / GH, UR Inf60′ +GHRH: Tables 8/9, urethane; for GH vivo Inf + GHRH ID50 (mean of time points): urethane, i.v. infusion, GHRH stimulated
Procedure: as §1, §3, §4, §5, §6, §7

[6] = tested on: GHRH stimulated GH secretion; assay: GH secretion, rat in urethan anesthesia, intraduodenal + repeated GHRH stimulation; format: in vivo; conditions: urethan
Text: No further treatment followed subcutaneous or intraduodenal application. […] This value has been determined in a total of four independent experiments. […] However, in further studies compound 47 has also been tested by the enteral route of administration after repeated stimulation of the GH secretion by GHRH. […] With most of these selected compounds additional in vivo experiments in other models (intraduodenal application followed by repeated stimulation of the GH secretion by GHRH, oral application by gavage of unanesthetized, estradiol primed rats) were performed. Table 4 summarizes data obtained for the inhibition of the stimulated GH secretion after subcutaneous, intraduodenal and intravenous application and the inhibitory effects obtained for different time points during intravenous infusion of selected hydantoins. […] [table]

SS1 = SS1 (Rattus norvegicus, UniProt P30680); assay: SS-1 binding (Bind SS1 D.H.)
SSTR1 = target: T2, SSTR1 (Homo sapiens, UniProt P30872); assay: Binding SSTR1; conditions: > = extrapolated value; read-out: Bind SSTR1
T2 construct: host or cells: SRIF receptor expressing cell cultures (general statement only)

SSTR3 = target: T3, SSTR3 (Homo sapiens, UniProt P32745); assay: Binding SSTR3; conditions: > = extrapolated value; read-out: Bind SSTR3
T3 construct: host or cells: SRIF receptor expressing cell cultures (general statement only)

SSTR4 = target: T4, SSTR4 (Homo sapiens, UniProt P31391); assay: Binding SSTR4; conditions: > = extrapolated value; read-out: Bind SSTR4
T4 construct: host or cells: SRIF receptor expressing cell cultures (general statement only)

SSTR5 = target: T5, SSTR5 (Homo sapiens, UniProt P35346); assay: Binding SSTR5; conditions: read-out: Bind SSTR5
T5 construct: host or cells: SRIF receptor expressing cell cultures (general statement only)
T5 sequence (P35346 whole entry, species assumed): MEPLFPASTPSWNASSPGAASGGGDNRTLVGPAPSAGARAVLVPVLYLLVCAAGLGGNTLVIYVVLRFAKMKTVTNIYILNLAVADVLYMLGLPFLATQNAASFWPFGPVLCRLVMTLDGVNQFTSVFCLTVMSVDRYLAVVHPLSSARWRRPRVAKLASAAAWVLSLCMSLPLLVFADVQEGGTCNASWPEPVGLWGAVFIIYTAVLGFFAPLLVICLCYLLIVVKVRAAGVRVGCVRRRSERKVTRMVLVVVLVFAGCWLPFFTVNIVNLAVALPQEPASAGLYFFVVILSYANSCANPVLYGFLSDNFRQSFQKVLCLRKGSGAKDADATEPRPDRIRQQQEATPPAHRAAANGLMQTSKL

T4 sequence (P31391 whole entry, species assumed): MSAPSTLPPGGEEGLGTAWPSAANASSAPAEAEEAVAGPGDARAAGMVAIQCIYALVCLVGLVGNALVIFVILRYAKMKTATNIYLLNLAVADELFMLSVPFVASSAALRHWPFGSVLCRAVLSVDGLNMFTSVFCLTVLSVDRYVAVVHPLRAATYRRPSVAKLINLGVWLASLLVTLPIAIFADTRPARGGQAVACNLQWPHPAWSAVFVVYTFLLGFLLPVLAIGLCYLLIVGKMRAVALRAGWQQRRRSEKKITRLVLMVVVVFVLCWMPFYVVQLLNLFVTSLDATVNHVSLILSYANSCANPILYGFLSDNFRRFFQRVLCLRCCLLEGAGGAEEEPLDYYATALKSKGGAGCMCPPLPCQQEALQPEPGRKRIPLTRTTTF
T1 sequence (P30874 whole entry): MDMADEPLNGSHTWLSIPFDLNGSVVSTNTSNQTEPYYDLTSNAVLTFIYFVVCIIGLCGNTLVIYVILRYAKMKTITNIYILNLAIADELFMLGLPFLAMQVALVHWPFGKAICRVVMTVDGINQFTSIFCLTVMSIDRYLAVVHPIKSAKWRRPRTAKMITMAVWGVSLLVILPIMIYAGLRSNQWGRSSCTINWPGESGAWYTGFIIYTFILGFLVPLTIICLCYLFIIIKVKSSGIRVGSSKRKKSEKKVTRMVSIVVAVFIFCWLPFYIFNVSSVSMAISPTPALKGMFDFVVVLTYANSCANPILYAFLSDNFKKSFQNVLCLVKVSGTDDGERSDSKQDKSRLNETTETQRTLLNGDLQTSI
T2 sequence (P30872 whole entry, species assumed): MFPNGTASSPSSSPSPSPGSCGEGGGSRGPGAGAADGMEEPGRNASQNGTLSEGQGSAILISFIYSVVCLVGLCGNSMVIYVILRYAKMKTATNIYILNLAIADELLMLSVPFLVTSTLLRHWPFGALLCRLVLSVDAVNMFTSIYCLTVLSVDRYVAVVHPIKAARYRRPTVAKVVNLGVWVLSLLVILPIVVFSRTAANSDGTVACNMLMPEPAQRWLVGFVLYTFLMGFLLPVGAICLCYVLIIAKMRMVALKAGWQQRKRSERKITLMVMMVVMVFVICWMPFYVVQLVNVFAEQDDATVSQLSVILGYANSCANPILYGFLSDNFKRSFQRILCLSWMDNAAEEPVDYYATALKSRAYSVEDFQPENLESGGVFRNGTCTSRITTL
SS1, sequence (P30680 whole entry): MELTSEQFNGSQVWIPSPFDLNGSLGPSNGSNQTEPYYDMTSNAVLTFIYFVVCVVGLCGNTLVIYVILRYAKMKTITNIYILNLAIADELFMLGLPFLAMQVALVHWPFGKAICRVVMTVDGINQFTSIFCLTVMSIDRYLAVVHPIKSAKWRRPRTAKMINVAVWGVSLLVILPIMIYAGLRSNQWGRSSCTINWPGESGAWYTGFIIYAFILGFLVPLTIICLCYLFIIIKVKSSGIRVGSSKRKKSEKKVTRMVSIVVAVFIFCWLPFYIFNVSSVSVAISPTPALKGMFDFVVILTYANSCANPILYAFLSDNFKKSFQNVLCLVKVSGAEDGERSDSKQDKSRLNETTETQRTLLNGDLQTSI
T3 sequence (P32745 whole entry, species assumed): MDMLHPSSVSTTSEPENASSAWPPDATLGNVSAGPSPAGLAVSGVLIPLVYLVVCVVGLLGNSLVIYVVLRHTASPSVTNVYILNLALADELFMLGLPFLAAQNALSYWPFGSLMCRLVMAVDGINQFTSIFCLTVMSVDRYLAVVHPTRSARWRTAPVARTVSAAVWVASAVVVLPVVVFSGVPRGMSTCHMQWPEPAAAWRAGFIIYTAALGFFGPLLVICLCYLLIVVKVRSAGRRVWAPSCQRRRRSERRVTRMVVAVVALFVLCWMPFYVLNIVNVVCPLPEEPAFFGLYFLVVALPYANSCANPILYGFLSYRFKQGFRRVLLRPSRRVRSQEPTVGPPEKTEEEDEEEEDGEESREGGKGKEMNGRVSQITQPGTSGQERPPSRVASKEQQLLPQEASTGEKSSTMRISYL

IC50 [1] | IC50 [2] | Bind SS1 D.H. (SS1) | IC50 (SSTR1) | IC50 (SSTR3) | IC50 (SSTR4) | IC50 (SSTR5) | SMILES | GH vivo s.c. 1 h ID50 (GH secretion [3]) | GH vivo i.d. 1 h ID50 (GH secretion [4]) | enteral ID50 (GH secretion) (GH secretion [4]) | INFUS. + GHRH ID50 MEAN [5] | INFUS. + GHRH ID50 15′ [5] | INFUS. + GHRH ID50 30′ [5] | INFUS. + GHRH ID50 60′ [5] | GH, Ur Inf15′ +GHRH [5] | GH, UR Inf30′ +GHRH [5] | GH, UR Inf60′ +GHRH [5] | INTRADUODENAL + GHRH ID50 15′ ([6]; ø = no effect at this dose) | INTRADUODENAL + GHRH ID50 30′ [6] | INTRADUODENAL + GHRH ID50 60′ [6] | other results
2.7 nM | 1.7 nM | 1.00 nM | > 1000 nM | > 1000 nM | > 1000 nM | 170 nM | Cc1cccc2c(CC3C(=O)N(CCCCCN)C(=O)N3S(=O)(=O)c3ccc(Oc4ccc(O)c(Cl)c4)c(C#N)c3)c[nH]c12 (centres unmarked) [Compound 44] | 0.258 mg/kg | 9.721 mg/kg | 9.7 mg/kg | 0.0432 mg/kg | 0.0724 mg/kg | 0.041 mg/kg | 0.0271 mg/kg | 50 µg/kg/h | 30 µg/kg/h | 21 µg/kg/h | 13 mg/kg | 16 mg/kg | 19 mg/kg | GH vivo s.c. 1 h ID50 (GH secretion [3]; listed as 44 ch): 0.258 mg/kg; GH vivo Inf + GHRH ID50 (mean of time points) ([5]; listed as 44 ch): 43.00 µg/kg/h and 32 µg/kg/h
3 nM | 5.1 nM | 1.00 nM | 1400 nM | 220 nM | > 1000 nM | 97 nM | Cc1cccc2c(CC3C(=O)N(CCCCCN)C(=O)N3S(=O)(=O)c3ccc(Oc4ccc(O)cc4)c(CN)c3)c[nH]c12 (centres unmarked) [Compound 45] | 0.048 mg/kg | 11.4 mg/kg | 11.4 mg/kg | 0.03105 mg/kg | 0.034 mg/kg | 0.03 mg/kg | 0.031 mg/kg | 34.000 µg/kg/h | 30.000 µg/kg/h | 30.000 µg/kg/h | 4.663 mg/kg | 6.52 mg/kg | 14.047 mg/kg | GH vivo s.c. 1 h ID50 (GH secretion [3]; listed as 45 ch): 0.048 mg/kg; GH vivo s.c. 1 h ID50 (GH secretion [3]; listed as 45 dch): 0.048 mg/kg; enteral bioavailability (from ID50 ratio) (GH secretion [4]; intraduodenal 1 hour vs parenteral ID50): =0/42%; GH vivo Inf + GHRH ID50 (mean of time points) ([5]; listed as 45 ch): 30.000 µg/kg/h; GH vivo Inf + GHRH ID50 (mean of time points) ([5]; listed as 45 dch): 31.05 µg/kg/h and 30.000 µg/kg/h; INTRADUODENAL + GHRH ID50 120′ ([6]; 120′, ø = no effect at this dose): ˜22000 μg/kg
44 nM | 255 nM |  | 50000 nM | 2800 nM | 5300 nM | 1400 nM | N#Cc1cc(S(=O)(=O)N2C(=O)N(CCCCCN)C(=O)C2Cc2c[nH]c3ccccc23)ccc1Oc1ccc(N)cc1 (centres unmarked) [Compound 42] |  | Ø10000 μg/kg |  |  |  |  |  | 856.000 µg/kg/h | 434.000 µg/kg/h | 425.000 µg/kg/h |  |  |  | GH vivo Inf + GHRH ID50 (mean of time points) [5]: 540.000 µg/kg/h

SMILES | IC50 [1] | IC50 [2] | Bind SS1 D.H. (SS1) | IC50 (SSTR1) | IC50 (SSTR3) | IC50 (SSTR4) | IC50 (SSTR5) | GH vivo s.c. 1 h ID50 (GH secretion [3]) | GH vivo i.d. 1 h ID50 (GH secretion [4]) | enteral ID50 (GH secretion) (GH secretion [4]) | INFUS. + GHRH ID50 MEAN [5] | INFUS. + GHRH ID50 15′ [5] | INFUS. + GHRH ID50 30′ [5] | INFUS. + GHRH ID50 60′ [5] | GH, Ur Inf15′ +GHRH [5] | GH, UR Inf30′ +GHRH [5] | GH, UR Inf60′ +GHRH [5] | INTRADUODENAL + GHRH ID50 15′ ([6]; ø = no effect at this dose) | INTRADUODENAL + GHRH ID50 30′ [6] | INTRADUODENAL + GHRH ID50 60′ [6] | other results
Cc1cccc2c(CC3C(=O)N(CCCCCN)C(=O)N3S(=O)(=O)c3ccc(Oc4ccc(O)cc4)c(C#N)c3)c[nH]c12 (centres unmarked) [Compound 14] | 5.7 nM | 11 nM | 2.50 nM | > 1000 nM | 300 nM | > 1000 nM | 450 nM | 1.16 mg/kg | >30 mg/kg |  |  |  |  |  | ˜44 μg/kg/h | 11.000 µg/kg/h | 14.000 µg/kg/h |  |  |  | EC50 for inhibition of GH release, subcutaneous (GH secretion [3]; applied subcutaneous): ~1 mg/kg; GH vivo Inf + GHRH ID50 (mean of time points) [5]: 19.000 µg/kg/h; SS-1 binding pKd (SS1): 8.56
